Patent US20250262333A1, “Construct for Transferring Foreign Substance, and Use Thereof” (TOAGOSEI CO., LTD., priority 2022, published 2025)
FAM = 5(6)-carboxyfluorescein (C21H12O7), a fluorescent dye

System: HeLa cells
Experiment: Evaluation of cell membrane penetration by flow cytometry
Format: cell-based, human
Settings: for MFI (mean fluorescence intensity): 10 μM additive, 0.5% DMSO, 20 hours at 37° C., 5% CO2, FAM fluorescence, detector FL2
Experimental: As the eukaryotic cells, HeLa cells (established cell strain derived from a human cervical cancer cell) were used and the cell membrane penetration of the peptides 1 to 6 was analyzed. In Examples 1 to 6, the prepared samples 1 to 6 were used, respectively, and in Example 7, the FAM solution was used.
The HeLa cell was cultured in 10% fetal bovine serum (FBS)-containing Dulbecco's modified Eagle's medium (DMEM (Cat No. 043-30085, manufactured by FUJIFILM Wako Pure Chemical Corporation)), which is a normal culture medium.
The HeLa cell that adhered to a culture plate was cleaned with PBS and then, a 0.25%-trypsin/EDTA solution was added thereto, and incubation was performed for three minutes at 37° C. After the incubation, the aforementioned 10% FBS-containing DMEM was added to deactivate trypsin and then, five-minute centrifugal separation was performed at 150×g to precipitate the cells. After the supernatant generated by the centrifugal separation was removed, the 10% FBS-containing DMEM was added to the precipitate (cell pellet) to prepare a cell suspension of about 2×10^5 cells/mL. The cell suspension was added by 1 mL to a well of a commercially available six-hole (well) plate (manufactured by AGC TECHNO GLASS Co., Ltd.) so as to seed the cell (about 2×10^5 cells/well). In addition, the 2 mM sample solution 1 was diluted with the 10% FBS-containing DMEM to prepare the sample solution 1 in which the concentration of the sample 1 was 20 μM. Then, 1 mL of the 20 μM sample solution 1 was added to the well (that is, so that the concentration of the sample 1 became 10 μM and the DMSO concentration became 0.5% in the culture solution in the well). After that, the cell was incubated for 20 hours at 37° C. under a 5% CO2 condition.
After the 20-hour incubation, the culture supernatant was removed from the well and the cells in the well were cleaned twice with 1 mL of PBS. Next, 200 μL of the 0.25% trypsin/EDTA solution was added to the well and the incubation was performed for three minutes at 37° C. After the incubation, 400 μL of the 10% FBS-containing DMEM was added to the well to deactivate the trypsin. Subsequently, the cell suspension in the well was transferred to a tube and the cells were collected. After that, 600 μL of PBS was added further to the well to clean the well. Then, PBS in the well was transferred to the tube, so that the cells remaining in the well were collected in the tube. This tube was subjected to five-minute centrifugal separation at 4° C. under a condition of 210×g. After the centrifugal separation, the supernatant was removed and the precipitate (cell pellet) was suspended (cleaned) with 1 mL of PBS, which was followed by the centrifugal separation under the same condition as that described above. After this operation was repeated twice, the supernatant was removed and thus, the cells (cell pellet) cultured in a culture medium containing the sample 1 were obtained.
Regarding the obtained cells (cell pellet), the cell membrane penetration of the sample 1 was analyzed using a flow cytometer. As the flow cytometer, On-Chip Flowcytometer (manufactured by On-Chip Biotechnologies Co., LTD.) was used.
For such an analysis, the obtained cell pellet was suspended with 50 μL of PBS. To this suspension, additionally, 50 μL of 2× sample buffer for the flow cytometer was added so as to prepare a cell suspension for analysis.
Using the aforementioned flow cytometer, gating based on forward scatter (FSC) and side scatter (SSC) was performed to set a gate about a cell group to be analyzed, and the fluorescence intensity was measured about the cell group in this gate. Note that the analysis was performed so that the cell group contained at least 10000 or more cells. The fluorescence intensity was measured using a fluorescence detector FL2 of the flow cytometer (optimum detection wavelength around 543 nm) capable of detecting the fluorescence wavelength of FAM. […]

Row | Substance | MFI (mean fluorescence intensity) | cell membrane penetration / value of MFI, comparison in words (10 μM, 20 hours, compared with Example 2 (construct including the peptide 2))
1 | Ac-RSRKYTSWYVALKR-FAM (Ac-RSRKYTSWYVALKR-{FAM}) [Example 2, reference compound] | 13.4 | 
2 | Ac-RSRKYTSWYVALKK-FAM [Example 6] | 11.1 | 
3 | Ac-RSKKYTSWYVALKR-FAM (Ac-RSKKYTSWYVALKR-{FAM}) [Example 5] | 12.8 | 
4 | Ac-KSKKYTSWYVALKR-FAM (Ac-KSKKYTSWYVALKR-{FAM}) [Example 3] | 14.6 | 
5 | 5 (6)-carboxyfluorescein [Example 7, reference compound] | 10.5 | 
6 | Ac-RSRKYTSWYVALKRWPC-FAM (Ac-RSRKYTSWYVALKRWPC-{FAM}) [Example 1] | 50.4 | remarkably higher
7 | Ac-KSRKYTSWYVALKR-FAM (Ac-KSRKYTSWYVALKR-{FAM}) [Example 4] | 13.2 | 
